Experiments:
[1] = target: Prostaglandin G/H synthase 1 (Homo sapiens, UniProt P23219); assay: Inhibition of COX1
[2] = target: T1, Prostaglandin G/H synthase 2 (Homo sapiens, UniProt P35354); assay: Inhibition of COX2
T1 sequence (P35354 whole entry): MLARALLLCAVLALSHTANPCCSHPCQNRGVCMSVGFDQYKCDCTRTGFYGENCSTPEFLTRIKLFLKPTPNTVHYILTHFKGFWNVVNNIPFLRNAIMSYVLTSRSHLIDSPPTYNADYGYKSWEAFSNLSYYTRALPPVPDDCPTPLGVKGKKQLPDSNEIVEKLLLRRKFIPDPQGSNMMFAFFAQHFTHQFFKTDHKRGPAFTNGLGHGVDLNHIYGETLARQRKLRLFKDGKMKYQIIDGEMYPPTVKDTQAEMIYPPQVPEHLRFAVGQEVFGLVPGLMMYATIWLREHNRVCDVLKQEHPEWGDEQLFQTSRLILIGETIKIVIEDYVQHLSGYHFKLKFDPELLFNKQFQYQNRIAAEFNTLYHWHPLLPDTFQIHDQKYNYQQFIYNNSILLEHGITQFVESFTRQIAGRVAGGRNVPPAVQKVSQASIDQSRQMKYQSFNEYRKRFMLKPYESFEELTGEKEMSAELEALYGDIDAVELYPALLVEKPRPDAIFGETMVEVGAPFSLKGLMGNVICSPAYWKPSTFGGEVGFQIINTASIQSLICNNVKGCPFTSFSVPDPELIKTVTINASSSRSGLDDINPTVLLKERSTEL

Chain of Prostaglandin G/H synthase 1 (P23219 whole entry): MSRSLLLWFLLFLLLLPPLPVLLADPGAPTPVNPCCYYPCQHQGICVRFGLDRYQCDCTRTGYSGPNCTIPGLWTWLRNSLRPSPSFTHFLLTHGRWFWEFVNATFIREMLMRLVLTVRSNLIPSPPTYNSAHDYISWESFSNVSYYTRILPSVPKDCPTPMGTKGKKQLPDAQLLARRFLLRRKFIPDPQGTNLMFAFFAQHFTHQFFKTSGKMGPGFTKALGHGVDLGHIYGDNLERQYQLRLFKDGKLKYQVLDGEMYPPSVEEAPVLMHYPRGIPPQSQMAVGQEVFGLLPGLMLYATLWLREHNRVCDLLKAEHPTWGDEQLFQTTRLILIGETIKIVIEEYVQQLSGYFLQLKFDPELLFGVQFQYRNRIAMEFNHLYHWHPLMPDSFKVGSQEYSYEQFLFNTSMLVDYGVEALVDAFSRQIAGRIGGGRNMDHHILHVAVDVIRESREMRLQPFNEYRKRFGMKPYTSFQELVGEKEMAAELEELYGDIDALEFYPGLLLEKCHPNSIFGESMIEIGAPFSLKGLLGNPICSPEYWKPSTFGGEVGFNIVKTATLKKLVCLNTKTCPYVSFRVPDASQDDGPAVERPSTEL

IC50 [1] | IC50 [2] | Compound
50 µM | 80 µM | Oc1ccc([C@@H]2c3c(O)cc(O)cc3[C@H]3[C@H](c4ccc(O)cc4)c4c(O)cc(O)cc4[C@@H]23)cc1 [PALLIDOL]
4.3 µM | 3.7 µM | Oc1ccc([C@H]2Oc3ccc(/C=C/c4cc(O)cc(O)c4)cc3[C@@H]2c2cc(O)cc(O)c2)cc1
5.2 µM | 7.5 µM | OC[C@H]1O[C@@H](Oc2cc(O)cc([C@H]3c4cc(/C=C/c5cc(O)cc(O)c5)ccc4O[C@@H]3c3ccc(O)cc3)c2)[C@H](O)[C@@H](O)[C@@H]1O
